The values that follow come from ChEMBL document CHEMBL3425402, “Discovery of β-D-2'-deoxy-2'-α-fluoro-4'-α-cyano-5-aza-7,9-dideaza adenosine as a potent nucleoside inhibitor of respiratory syncytial virus with excellent selectivity over mitochondrial RNA and DNA polymerases” (Bioorg Med Chem Lett, 2015).

SMILES strings stand for the structures.

A short description of data set [1]: Antiviral activity against RSV A2 infected in human Hep2 cells assessed as protection against virus-induced cytopathic effect after 4 days by Cell-Titer Glo assay. The data set is classed as functional, cell-based. The following applies: human respiratory syncytial virus, HEp-2, 96 h. For orientation: Protection from cytopathic effect is a common read-out in antiviral testing.

Data set [2] in a line: Inhibition of RSV A2 RNA-dependent RNA polymerase expressed in human Hep2 cells using ATP, GTP, UTP, CTP and 1.5 uCi [alpha-32P] NTP as substrate assessed as reduction of total radiolabled transcript after 90 mins by agarose gel electrophoresis. Set-up: species or system Human respiratory syncytial virus A2. The following applies: hep-2.
A short description of data set [3]: Cytotoxicity against human MT4 cells assessed as cell viability after 5 days by Cell-Titer Glo assay. The data set is classed as cell-based.
Data set [4] has as its target DNA-directed RNA polymerase, mitochondrial (Homo sapiens) (UniProt O00411). The experiment in a line: Inhibition of human mitochondrial RNA polymerase using 5'-32P-R12/D18 as RNA/DNA template assessed as single nucleotide incorporation rate at 500 uM after 0.17 to 30 mins by PAGE analysis.
The target of data set [5] is DNA polymerase subunit gamma-1/gamma-2 (Homo sapiens) (UniProt P54098+Q9UHN1). The experiment in a line: Inhibition of human mitochondrial DNA polymerase gamma large subunit/DNA polymerase gamma accessory subunit using 32P-D19/D36 as DNA primer/template assessed as single nucleotide incorporation rate at 100 uM after 5 to 90 mins by PAGE analysis relative to thymidine NTP. Format: protein assay.
DNA polymerase subunit gamma-1/gamma-2 (Homo sapiens), sequence (P54098 whole entry, looked up): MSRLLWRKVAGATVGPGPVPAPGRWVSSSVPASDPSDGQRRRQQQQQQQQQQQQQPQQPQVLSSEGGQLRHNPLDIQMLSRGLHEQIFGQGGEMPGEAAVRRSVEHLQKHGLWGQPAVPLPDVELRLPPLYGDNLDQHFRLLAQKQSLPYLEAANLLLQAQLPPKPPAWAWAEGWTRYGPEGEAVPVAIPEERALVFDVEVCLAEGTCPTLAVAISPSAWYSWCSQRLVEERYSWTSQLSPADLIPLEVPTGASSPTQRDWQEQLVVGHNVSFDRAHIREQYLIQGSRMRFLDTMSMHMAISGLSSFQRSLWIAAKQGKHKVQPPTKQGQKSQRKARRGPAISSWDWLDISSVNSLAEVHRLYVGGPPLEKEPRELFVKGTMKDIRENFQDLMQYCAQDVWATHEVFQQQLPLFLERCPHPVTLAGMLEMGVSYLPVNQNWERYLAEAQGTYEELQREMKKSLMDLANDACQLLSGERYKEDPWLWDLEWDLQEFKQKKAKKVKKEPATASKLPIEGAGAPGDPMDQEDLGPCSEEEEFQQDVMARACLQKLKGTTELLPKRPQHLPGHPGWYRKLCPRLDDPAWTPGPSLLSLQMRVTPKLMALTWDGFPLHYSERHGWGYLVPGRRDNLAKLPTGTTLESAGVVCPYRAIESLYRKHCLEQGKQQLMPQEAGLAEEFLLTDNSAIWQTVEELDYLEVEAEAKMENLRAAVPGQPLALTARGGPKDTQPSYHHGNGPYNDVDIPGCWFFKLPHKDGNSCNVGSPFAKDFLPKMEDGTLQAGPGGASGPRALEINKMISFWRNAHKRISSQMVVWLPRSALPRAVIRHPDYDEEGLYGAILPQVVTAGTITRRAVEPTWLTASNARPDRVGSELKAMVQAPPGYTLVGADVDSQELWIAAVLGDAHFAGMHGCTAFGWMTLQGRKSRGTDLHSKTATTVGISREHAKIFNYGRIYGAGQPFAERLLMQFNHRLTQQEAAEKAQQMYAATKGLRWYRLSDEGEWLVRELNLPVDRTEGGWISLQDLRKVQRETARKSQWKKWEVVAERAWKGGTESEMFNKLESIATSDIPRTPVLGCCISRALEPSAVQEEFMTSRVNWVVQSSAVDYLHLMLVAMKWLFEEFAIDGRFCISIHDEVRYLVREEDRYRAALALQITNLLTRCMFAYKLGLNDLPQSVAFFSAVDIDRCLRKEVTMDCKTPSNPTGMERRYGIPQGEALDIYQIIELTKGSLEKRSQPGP
DNA polymerase subunit gamma-1/gamma-2 (Homo sapiens), sequence (Q9UHN1 whole entry, looked up): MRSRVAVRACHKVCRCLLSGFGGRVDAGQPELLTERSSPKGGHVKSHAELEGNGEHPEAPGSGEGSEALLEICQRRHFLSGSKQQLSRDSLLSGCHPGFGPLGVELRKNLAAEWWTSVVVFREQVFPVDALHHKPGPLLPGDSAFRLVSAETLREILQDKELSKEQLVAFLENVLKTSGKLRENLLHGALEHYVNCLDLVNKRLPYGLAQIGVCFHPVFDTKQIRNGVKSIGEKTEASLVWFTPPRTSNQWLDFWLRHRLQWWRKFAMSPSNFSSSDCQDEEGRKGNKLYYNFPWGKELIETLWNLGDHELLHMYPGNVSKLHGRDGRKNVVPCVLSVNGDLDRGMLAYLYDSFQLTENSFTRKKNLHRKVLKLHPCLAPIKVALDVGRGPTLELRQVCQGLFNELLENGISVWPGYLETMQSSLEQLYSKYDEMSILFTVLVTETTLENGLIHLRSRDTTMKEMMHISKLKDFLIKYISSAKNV

DNA-directed RNA polymerase, mitochondrial (Homo sapiens), sequence (O00411 whole entry): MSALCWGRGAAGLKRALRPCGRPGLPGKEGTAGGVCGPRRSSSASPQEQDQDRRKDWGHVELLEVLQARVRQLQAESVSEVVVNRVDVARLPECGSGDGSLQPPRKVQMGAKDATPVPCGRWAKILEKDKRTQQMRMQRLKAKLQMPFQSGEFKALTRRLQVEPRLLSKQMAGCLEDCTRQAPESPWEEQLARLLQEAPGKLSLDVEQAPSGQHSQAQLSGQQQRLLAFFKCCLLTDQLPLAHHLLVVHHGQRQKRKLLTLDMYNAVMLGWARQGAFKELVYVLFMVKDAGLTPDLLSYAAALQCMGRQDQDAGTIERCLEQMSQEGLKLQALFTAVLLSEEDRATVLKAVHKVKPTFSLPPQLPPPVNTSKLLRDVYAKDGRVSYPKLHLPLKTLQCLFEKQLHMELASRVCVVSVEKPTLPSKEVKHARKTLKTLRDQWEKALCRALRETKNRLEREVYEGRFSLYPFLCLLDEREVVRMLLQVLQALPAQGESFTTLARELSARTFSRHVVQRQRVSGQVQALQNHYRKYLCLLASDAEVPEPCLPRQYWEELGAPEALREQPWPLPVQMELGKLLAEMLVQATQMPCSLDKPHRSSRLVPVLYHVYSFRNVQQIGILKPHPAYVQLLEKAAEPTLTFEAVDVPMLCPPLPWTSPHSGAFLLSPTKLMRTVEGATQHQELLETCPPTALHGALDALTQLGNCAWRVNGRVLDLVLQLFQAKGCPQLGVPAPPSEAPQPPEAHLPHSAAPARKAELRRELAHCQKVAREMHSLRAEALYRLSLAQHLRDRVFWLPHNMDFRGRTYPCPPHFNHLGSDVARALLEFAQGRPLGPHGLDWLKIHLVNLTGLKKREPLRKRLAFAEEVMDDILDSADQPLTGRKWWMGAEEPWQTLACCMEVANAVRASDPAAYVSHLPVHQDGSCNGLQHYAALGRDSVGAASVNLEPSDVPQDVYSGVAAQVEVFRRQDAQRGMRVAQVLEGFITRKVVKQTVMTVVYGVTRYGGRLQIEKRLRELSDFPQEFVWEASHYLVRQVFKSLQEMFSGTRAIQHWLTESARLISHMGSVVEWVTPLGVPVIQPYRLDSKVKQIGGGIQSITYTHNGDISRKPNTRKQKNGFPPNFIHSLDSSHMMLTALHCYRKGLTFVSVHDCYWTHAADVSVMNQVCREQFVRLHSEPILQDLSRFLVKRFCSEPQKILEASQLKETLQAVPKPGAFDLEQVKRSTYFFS

Usually EC50 stands for the concentration needed to bring the measured effect to its halfway point. One may read the IC50 as the point on the concentration scale where inhibition reaches its midpoint. The term CC50 denotes the concentration at which the toxic effect on the cells reaches its halfway point. As usually defined, the inhibition is the drop in the measured response relative to a control, in per cent. Turning to `C=C[C@]1(CO)O[C@@H](c2ccc3c(N)ncnn23)[C@H](F)[C@@H]1O`, in data set [1], the EC50 is 10 µM. Besides, in data set [2], the IC50 was 0.6 µM. Further, in data set [3], the CC50 at 120 h was > 114 µM. The values for the inhibition in data set [4] and in data set [5] were 2.9% and 10%, respectively.
For `Nc1ccn([C@@H]2O[C@@](CO)(CCl)[C@@H](O)[C@H]2F)c(=O)n1` [ALS-8112] the same measures were 0.92 µM, 1 µM, 21 µM, 0% and 41%.
For the molecule `Nc1ccn([C@@H]2O[C@H](CO)[C@@H](O)[C@H]2F)c(=O)n1`, in data set [1], the EC50 was > 200 µM. The IC50 in data set [2] was 1.8 µM. In addition, the CC50 at 120 h in data set [3] came out at 3.8 µM. Further, the inhibition was found to be 20% in data set [4] and 17% in data set [5].
As to `CC(C)C(=O)OC[C@@]1(N=[N+]=[N-])O[C@@H](n2ccc(N)nc2=O)[C@H](OC(=O)C(C)C)[C@@H]1OC(=O)C(C)C`, in data set [4], the inhibition is 112%.
For the molecule `C#C[C@]1(CO)O[C@@H](n2cnc3c(=O)[nH]c(N)nc32)[C@H](F)[C@@H]1O`, the EC50 in data set [1] stood at 26 µM. Moreover, the 50% inhibitory concentration (IC50) in data set [2] worked out at 1.8 µM. Moreover, the 50% cytotoxic concentration (CC50) at 120 h in data set [3] stood at 39 µM. Moreover, the inhibition in data set [4] amounted to 18%; in data set [5], 5%.
For `Nc1ncnc2c1ncn2[C@@H]1O[C@H](CO)[C@@H](O)[C@H]1F` [2'-BETA-FLUORO-2',3'-DEOXYADENOSINE], the concentration for a half-maximal effect (EC50) in data set [1] is > 50 µM. In addition, the IC50 in data set [2] is 7.7 µM. The inhibition in data set [4] was found to be 24%; in data set [5], 8%.
For `O=c1ccn([C@@H]2O[C@H](CO)[C@@H](O)[C@H]2F)c(=O)[nH]1` the same measures were > 100 µM, 3.5 µM, 37% and 11%.
`Nc1nc2c(ncn2[C@@H]2O[C@H](CO)[C@@H](O)[C@H]2F)c(=O)[nH]1`: the CC50 at 120 h in data set [3] is > 49 µM.
As to `CC[C@]1(CO)O[C@@H](c2ccc3c(N)ncnn23)[C@H](F)[C@@H]1O`, in data set [1], the EC50 turned out to be 41 µM. In addition, in data set [2], the 50% inhibitory concentration (IC50) came out at 0.5 µM. In data set [3], the CC50 at 120 h was > 114 µM. Moreover, the inhibition turned out to be 0.1% in data set [4] and 5.7% in data set [5].
For the molecule `N#C[C@]1(CO)O[C@@H](c2ccc3c(N)ncnn23)[C@H](F)[C@@H]1O`, the EC50 in data set [1] came to 2 µM. For the same molecule, the IC50 in data set [2] worked out at 0.086 µM. Besides, the CC50 at 120 h in data set [3] is > 114 µM. Besides, the inhibition in data set [4] and in data set [5] was < 0.1% each time.
As to `N#C[C@]1(CO)O[C@@H](n2cnc3c(=O)[nH]c(N)nc32)[C@H](F)[C@@H]1O`, the 50% effective concentration (EC50) in data set [1] worked out at 10 µM. For the same molecule, the IC50 in data set [2] is 2.6 µM. Besides, the CC50 at 120 h in data set [3] was determined as 24 µM. For the same molecule, the inhibition was found to be 0% in data set [4] and 3% in data set [5].
Turning to `O=c1[nH]c(=O)n([C@@H]2O[C@H](CO)[C@@H](O)[C@@H]2F)cc1I`, the inhibition in data set [5] turned out to be 99%.
Turning to `CC[C@]1(CO)O[C@@H](n2ccc(N)nc2=O)[C@H](F)[C@@H]1O`, the EC50 in data set [1] stood at 8 µM. Further, the IC50 in data set [2] came out at 0.6 µM. Also, the CC50 at 120 h in data set [3] is > 57 µM. The inhibition is 0% in data set [4] and 6% in data set [5].
In the same order, the values of `Nc1ncnn2c([C@@H]3O[C@H](CO)[C@@H](O)[C@H]3F)ccc12` are > 100 µM, 0.6 µM, 26 µM, 22% and 2.5%.
Take `[N-]=[N+]=N[C@]1(CO)O[C@@H](n2ccc(N)nc2=O)[C@H](F)[C@@H]1O`: the EC50 in data set [1] is 3.5 µM. Further, in data set [2], the IC50 came to 0.3 µM. Besides, the CC50 at 120 h in data set [3] is 23 µM. Further, the inhibition turned out to be 3% in data set [4] and 7% in data set [5].
As for `Nc1nc(O)c2ncn([C@@H]3O[C@H](CO)[C@@H](O)[C@H]3F)c2n1`, the EC50 in data set [1] was > 200 µM. Further, the half-inhibitory concentration (IC50) in data set [2] is 6.6 µM. In addition, the inhibition in data set [4] stood at 21%; in data set [5] it was 34%.
For `C=C[C@]1(CO)O[C@@H](n2cnc3c(=O)[nH]c(N)nc32)[C@H](F)[C@@H]1O`, the EC50 in data set [1] was 17 µM. In addition, the IC50 in data set [2] was 12 µM. Besides, the cytotoxic concentration (CC50) at 120 h in data set [3] was 46 µM. Further, the inhibition in data set [4] and in data set [5] was 1% in each case.
Consider `C=C[C@]1(CO)O[C@@H](n2ccc(N)nc2=O)[C@H](F)[C@@H]1O`, for which the EC50 in data set [1] was > 50 µM. In addition, in data set [2], the IC50 was found to be 0.6 µM. Besides, the CC50 at 120 h in data set [3] was > 57 µM. Also, the inhibition in data set [4] was 1.2%; in data set [5], 4.9%.
